Test results taken from ChEMBL document CHEMBL6114941, “Recent progress on small molecule TLR4 antagonist against triple-negative breast cancer progression and complications” (2024).

Experiments:
Assay type in all cases: functional
[1] = system: MDA-MB-435; assay: Antiproliferative activity against human MDA-MB-435 cells assessed as inhibition of cell growth at 10 uM in presence of paclitaxel relative to control
[2] = system: Ehrlich; assay: Antitumor activity against mouse Ehrlich cells implanted in BALB/c nude mouse assessed as increase in apoptotic cell death at 5 mg/kg, ip administered once daily for 7 days relative to control; settings: time 7 day
[3] = system: MDA-MB-435; assay: Antiproliferative activity against human MDA-MB-435 cells assessed as inhibition of cell growth at 1 nM relative to control

Q: Which inhibition at 10 µM [1] does the source give for CCc1ccc(/C=C/C(=O)/C=C(O)/C=C/c2ccc(OC)c(O)c2OC)c(CC)c1O here?
A: Its inhibition at 10 µM is 45%.

Q: Which Activity [2] does the source give for COc1cc(/C=C/C(=O)/C=C/c2ccc(O)c(OC)c2)ccc1[O-].[Na+] here?
A: Its Activity is 30%.

Q: With CC(=O)O[C@H]1C(=O)[C@@]2(C)[C@H]([C@H](OC(=O)c3ccccc3)[C@]3(O)C[C@H](OC(=O)[C@H](O)[C@@H](NC(=O)c4ccccc4)c4ccccc4)C(C)=C1C3(C)C)[C@]1(OC(C)=O)CO[C@@H]1C[C@@H]2O [PACLITAXEL] as the compound, how does the inhibition at 0.001 µM [3] read?
A: The inhibition at 0.001 µM was 97%.
